How the values were obtained:
[1] = target: T1, ALK-wt (Homo sapiens, UniProt Q9UM73); test: Biochemical kinase assay, ALK-wt kinase domain; details: apparent inhibitory constant, Morrison equation; ATP 2 mM in substrate solution; read-out: ALK-wt Ki^app
T1 construct: purchased Carna 08-518
Procedure: (§1) First, 250 nL of compound dissolved in DMSO (100-fold of the desired concentration) was dispensed into a 384-well plate. A 12.5 μL substrate solution containing ATP (2 mM) and fluorogenic phosphorylation substrate AQT0101 (26 μM for ALK and ROS1, AssayQuant) or AQT0104 (26 μM for TRKA, AssayQuant) in buffer (50 mM HEPES pH 7.5, 0.01% Brij-35, 0.5 mM EGTA, 10 mM MgCl2) was added and mixed thoroughly. Then, a 12.5 μL kinase solution containing ALK-wt (1.5 nM, Carna, 08-518), ALK ALK L1196M/G1202R (3 nM, SignalChem, A19-12NG), ROS1-wt (0.6 nM, Carna, 08-163), ROS1-G2032R (0.5 nM, SignalChem, R14-12BG), or TRKA-wt (1 nM, BPS Bio, 40280) kinase domains in buffer (50 nM HEPES pH 7.5, 0.01% Brij-35, 2% glycerol, 0.4 mg/mL BSA, 0.5 mM EGTA, and 10 mM MgCl2) was added and mixed thoroughly. The plate was sealed and read by SpectraMax Paradigm at λ=485 nm every 2 minutes for 120 minutes at 30° C. Initial rates of reaction (v) were calculated from the change in fluorescence intensity over time during the initial, linear portion of the reaction. Finally, apparent inhibitory constants (Ki^app) were determined from regression of v and I (inhibitor concentration) to Morrison Equation (E=enzyme concentration): […]

[2] = target: T2, Ba/F3 cells EML4-ALK wt (variant 1) (Homo sapiens, UniProt Q9UM73); test: Ba/F3 cell proliferation assay, EML4-ALK wt (variant 1); type: cell-based; details: 72 hours, CellTiter-Glo
T2 construct: echinoderm microtubule-associated protein-like 4 (EML4) gene and the ALK tyrosine kinase domain; host or cells: Ba/F3 (RIKEN), retroviral pMSCV-puro; the other entry of the earlier key: EML4 (Q9HC35, Echinoderm microtubule-associated protein-like 4)
Excerpt: (§2) Genes encoding CD74-ROS1 wild-type (wt), CD74-ROS1 G2032R, CD74-ROS1 S1986F, CD74-ROS1 L2026M, CD74-ROS1 D2033N, EML4-ALK wt (variant 1), EML4-ALK G1202R (variant 1), EML4-ALK L1196M/G1202R (variant 1), EML4-ALK G1202R/G1269A (variant 1), EML4-ALK G1202R/L1198F (variant 1), and TPM3-TRKA were synthesized at GeneRay, cloned into the retroviral construct pMSCV-puro (Biovector), and packaged into retroviral particles. The virus was used to infect Ba/F3 cells (RIKEN) at multiplicity of infection=1 for 1 day. Infected cells were rescued in media (RPMI-1640 with 10% fetal bovine serum and 1% streptomycin and penicillin) supplemented with mouse IL-3 (10 ng/mL) for 2 days, and stable cell lines were selected by IL-3 withdrawal and puromycin (0.8 μg/mL) for 7 days. Monoclones were selected by single-cell dilution in IL-3-free medium containing puromycin (0.8 μg/mL). Transformation of desired genes was confirmed by Sanger sequencing and western blot using the following antibodies: ROS1 (CST #3287), ALK (CST #3633), and pan-TRK (Abcam #76291).
(§3) Cell Proliferation Assay Stable cells were plated at 1,000 cells/well (40 μL) in a 384-well plate for 1 day.
(§4) Test compounds (40 nL) were then added in a 3-fold dilution series using the TECAN EVO200 liquid handler and incubated for 72 hours. Plates were equilibrated at room temperature for 15 minutes followed by addition of 40 μL CellTiter-Glo reagent (Promega).
(§5) Luminescence was measured on a plate reader. Half-maximal inhibitory concentration (IC50) was calculated from percent inhibition and inhibitor concentration using four-parameter logistic regression. […] (nd=not determined).

[3] = target: T3, Ba/F3 cells EML4-ALK L1196M/G1202R (variant 1) (Homo sapiens, UniProt Q9UM73, G1202R/L1196M); test: Ba/F3 cell proliferation assay, EML4-ALK L1196M/G1202R (variant 1); type: cell-based; details: 72 hours, CellTiter-Glo
T3 construct: echinoderm microtubule-associated protein-like 4 (EML4) gene and the ALK tyrosine kinase domain; host or cells: Ba/F3 (RIKEN), retroviral pMSCV-puro; the other entry of the earlier key: EML4 (Q9HC35, Echinoderm microtubule-associated protein-like 4)
Excerpt: as §2, §3, §4, §5

[4] = target: T4, TRKA-wt (Homo sapiens, UniProt P04629); test: Biochemical kinase assay, TRKA-wt kinase domain; details: apparent inhibitory constant, Morrison equation; ATP 2 mM in substrate solution; read-out: TRKA-wt Ki^app
T4 construct: or TRKA-wt (1 nM, BPS Bio, 40280) kinase domains in buffer; purchased BPS Bio 40280
Procedure: as §1

[5] = target: T5, ALK L1196M/G1202R (Homo sapiens, UniProt Q9UM73, G1202R/L1196M); test: Biochemical kinase assay, ALK L1196M/G1202R kinase domain; details: apparent inhibitory constant, Morrison equation; ATP 2 mM in substrate solution; read-out: ALK-L1196M-G1202R Ki^app
T5 construct: purchased SignalChem A19-12NG
Procedure: as §1

[6] = target: T6, Ba/F3 cells TPM3-TRKA (Homo sapiens, UniProt P04629); test: Ba/F3 cell proliferation assay, TPM3-TRKA; type: cell-based; details: 72 hours, CellTiter-Glo, read-out: TPM3-NTRK1-wt IC50
T6 construct: host or cells: Ba/F3 (RIKEN), retroviral pMSCV-puro; the other entry of the earlier key: TPM3 (P06753, Tropomyosin alpha-3 chain)
Excerpt: as §2, §3, §4, §5

[7] = target: T7, ROS1-G2032R (Homo sapiens, UniProt P08922, G2032R); test: Biochemical kinase assay, ROS1-G2032R kinase domain; details: apparent inhibitory constant, Morrison equation; ATP 2 mM in substrate solution; read-out: ROS1-G2032R Ki^app
T7 construct: purchased SignalChem R14-12BG
Procedure: as §1, with “Then, a 12.5 μL kinase solution containing ALK-wt (1.5 nM, Carna, 08-518), ALK ALK L1196M/G1202R (3 nM, SignalChem, A19-12NG), ROS1-wt (0.6 nM, Carna, 08-163), ROS1-G2032R (0.5 nM, SignalChem, R14-12BG), or TRKA-wt (1 nM, BPS Bio, 40280) kinase domains in buffer (50 nM HEPES pH 7.5, 0.01% Brij-35, 2% glycerol, 0.4 mg/mL BSA, 0.5 mM EGTA, and 10 mM MgCl2) was added and mixed thoroughly.” left out

[8] = target: T8, ROS1-wt (Homo sapiens, UniProt P08922); test: Biochemical kinase assay, ROS1-wt kinase domain; details: apparent inhibitory constant, Morrison equation; ATP 2 mM in substrate solution; read-out: ROS1-wt Ki^app
T8 construct: purchased Carna 08-163
Procedure: as §1, with “Then, a 12.5 μL kinase solution containing ALK-wt (1.5 nM, Carna, 08-518), ALK ALK L1196M/G1202R (3 nM, SignalChem, A19-12NG), ROS1-wt (0.6 nM, Carna, 08-163), ROS1-G2032R (0.5 nM, SignalChem, R14-12BG), or TRKA-wt (1 nM, BPS Bio, 40280) kinase domains in buffer (50 nM HEPES pH 7.5, 0.01% Brij-35, 2% glycerol, 0.4 mg/mL BSA, 0.5 mM EGTA, and 10 mM MgCl2) was added and mixed thoroughly.” left out

[9] = target: T9, Ba/F3 cells CD74-ROS1 G2032R (Homo sapiens, UniProt P08922, G2032R); test: Ba/F3 cell proliferation assay, CD74-ROS1 G2032R; type: cell-based; details: 72 hours, CellTiter-Glo
T9 construct: fusion of the C-terminus of ROS1 with the N-terminus of various partner proteins; host or cells: Ba/F3 (RIKEN), retroviral pMSCV-puro; the other entry of the earlier key: CD74 (P04233, HLA class II histocompatibility antigen gamma chain)
Procedure: The virus was used to infect Ba/F3 cells (RIKEN) at multiplicity of infection=1 for 1 day. Infected cells were rescued in media (RPMI-1640 with 10% fetal bovine serum and 1% streptomycin and penicillin) supplemented with mouse IL-3 (10 ng/mL) for 2 days, and stable cell lines were selected by IL-3 withdrawal and puromycin (0.8 μg/mL) for 7 days. Monoclones were selected by single-cell dilution in IL-3-free medium containing puromycin (0.8 μg/mL).
as §3, §4, §5

[10] = test system: TPM3-NTRK1-wt IC50 / primary target IC50 (e.g. CD74-ROS1-wt); test: TRKA selectivity in Ba/F3 cells (TRKA potency divided by primary target potency); type: cell-based; details: for TPM3-NTRK1-wt/CD74-ROS1-G2032R selectivity ratio: TRKA potency / CD74-ROS1-G2032R potency; for TPM3-NTRK1-wt/EML4-ALK-L1196M-G1202R selectivity ratio: TRKA potency / EML4-ALK-L1196M-G1202R potency
Procedure: TRKA selectivity was calculated by dividing a compound's TRKA potency by its primary target potency (e.g. TPM3-NTRK1-wt IC50/CD74-ROS1-wt IC50). Compound selectivity can be interpreted by binning ratio values: bin A for very high selectivity, ratio >30-fold; bin B for high selectivity, ratio >10-fold; bin C for moderate selectivity, ratio ≥1; and bin D for low selectivity, ratio <1. […] (nd=not determined).

T6 sequence (P04629 510-796 limits assumed): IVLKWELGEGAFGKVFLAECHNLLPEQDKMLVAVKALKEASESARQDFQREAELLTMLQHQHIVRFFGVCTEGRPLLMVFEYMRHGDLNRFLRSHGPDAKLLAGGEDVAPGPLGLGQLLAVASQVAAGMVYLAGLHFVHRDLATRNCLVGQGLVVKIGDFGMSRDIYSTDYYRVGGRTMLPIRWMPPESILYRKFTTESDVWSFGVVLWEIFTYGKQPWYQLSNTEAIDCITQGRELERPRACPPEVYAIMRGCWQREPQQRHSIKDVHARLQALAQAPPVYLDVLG
T4 sequence (P04629 510-781 limits assumed): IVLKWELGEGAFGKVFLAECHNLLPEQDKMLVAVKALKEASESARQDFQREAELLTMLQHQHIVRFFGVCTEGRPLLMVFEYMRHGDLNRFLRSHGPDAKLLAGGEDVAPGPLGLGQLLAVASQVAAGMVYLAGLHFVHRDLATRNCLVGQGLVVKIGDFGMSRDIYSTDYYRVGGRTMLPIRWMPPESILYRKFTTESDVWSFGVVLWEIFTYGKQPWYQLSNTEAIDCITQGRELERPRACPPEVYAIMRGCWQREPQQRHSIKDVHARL
T5 sequence (Q9UM73 1116-1392 L1196M/G1202R limits assumed): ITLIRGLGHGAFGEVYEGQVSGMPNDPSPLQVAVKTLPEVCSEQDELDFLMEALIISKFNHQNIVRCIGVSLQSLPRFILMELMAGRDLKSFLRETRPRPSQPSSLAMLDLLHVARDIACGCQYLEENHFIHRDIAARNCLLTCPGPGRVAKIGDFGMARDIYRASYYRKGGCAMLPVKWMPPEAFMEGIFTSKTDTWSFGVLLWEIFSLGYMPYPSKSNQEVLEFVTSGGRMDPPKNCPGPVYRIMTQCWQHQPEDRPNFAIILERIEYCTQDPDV
T3 sequence (Q9UM73 with tags, fused parts or gaps L1196M/G1202R): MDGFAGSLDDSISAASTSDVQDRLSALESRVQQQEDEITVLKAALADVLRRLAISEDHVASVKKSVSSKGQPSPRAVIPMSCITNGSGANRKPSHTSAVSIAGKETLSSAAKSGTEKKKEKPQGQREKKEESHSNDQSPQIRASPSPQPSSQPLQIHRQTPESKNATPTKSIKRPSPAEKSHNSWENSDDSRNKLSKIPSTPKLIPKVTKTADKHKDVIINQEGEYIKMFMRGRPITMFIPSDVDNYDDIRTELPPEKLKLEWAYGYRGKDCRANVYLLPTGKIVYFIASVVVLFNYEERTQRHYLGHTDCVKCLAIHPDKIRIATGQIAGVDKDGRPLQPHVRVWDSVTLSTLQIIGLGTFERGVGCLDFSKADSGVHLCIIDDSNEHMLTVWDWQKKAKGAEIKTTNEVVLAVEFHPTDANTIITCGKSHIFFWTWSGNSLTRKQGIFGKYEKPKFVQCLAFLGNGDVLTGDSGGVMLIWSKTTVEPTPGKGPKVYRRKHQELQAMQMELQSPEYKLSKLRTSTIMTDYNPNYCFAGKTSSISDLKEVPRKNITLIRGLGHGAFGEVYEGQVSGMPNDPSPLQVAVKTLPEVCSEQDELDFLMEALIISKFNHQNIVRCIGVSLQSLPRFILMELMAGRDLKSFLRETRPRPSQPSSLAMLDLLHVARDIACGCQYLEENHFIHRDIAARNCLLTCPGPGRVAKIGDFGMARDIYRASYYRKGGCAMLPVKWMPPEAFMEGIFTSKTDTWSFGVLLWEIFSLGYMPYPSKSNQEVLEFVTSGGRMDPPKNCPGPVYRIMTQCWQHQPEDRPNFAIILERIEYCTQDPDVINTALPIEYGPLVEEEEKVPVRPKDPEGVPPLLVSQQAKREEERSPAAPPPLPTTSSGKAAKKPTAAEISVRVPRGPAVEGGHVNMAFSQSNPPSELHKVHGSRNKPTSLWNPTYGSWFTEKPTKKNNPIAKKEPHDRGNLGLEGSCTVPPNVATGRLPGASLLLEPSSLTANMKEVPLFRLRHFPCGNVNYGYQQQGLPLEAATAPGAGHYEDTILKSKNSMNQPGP
T1 sequence (Q9UM73 1116-1392 limits assumed): as the sequence (Q9UM73 1116-1392 L1196M/G1202R limits assumed) above, with M81L, R87G counted along it
T9 sequence (P08922 1883-2347 G2032R limits assumed): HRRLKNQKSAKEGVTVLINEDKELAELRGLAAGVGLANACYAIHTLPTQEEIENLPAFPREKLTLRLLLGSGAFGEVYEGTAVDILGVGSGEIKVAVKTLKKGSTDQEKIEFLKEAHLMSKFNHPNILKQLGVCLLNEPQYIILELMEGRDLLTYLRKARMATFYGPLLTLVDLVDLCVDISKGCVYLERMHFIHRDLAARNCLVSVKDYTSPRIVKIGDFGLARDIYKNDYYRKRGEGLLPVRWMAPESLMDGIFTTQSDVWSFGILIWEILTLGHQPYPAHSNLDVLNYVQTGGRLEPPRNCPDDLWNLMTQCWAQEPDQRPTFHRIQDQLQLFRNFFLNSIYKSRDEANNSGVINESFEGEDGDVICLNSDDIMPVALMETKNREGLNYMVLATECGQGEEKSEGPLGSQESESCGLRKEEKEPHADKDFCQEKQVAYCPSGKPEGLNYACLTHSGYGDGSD
T7 sequence (P08922 1945-2222 G2032R limits assumed): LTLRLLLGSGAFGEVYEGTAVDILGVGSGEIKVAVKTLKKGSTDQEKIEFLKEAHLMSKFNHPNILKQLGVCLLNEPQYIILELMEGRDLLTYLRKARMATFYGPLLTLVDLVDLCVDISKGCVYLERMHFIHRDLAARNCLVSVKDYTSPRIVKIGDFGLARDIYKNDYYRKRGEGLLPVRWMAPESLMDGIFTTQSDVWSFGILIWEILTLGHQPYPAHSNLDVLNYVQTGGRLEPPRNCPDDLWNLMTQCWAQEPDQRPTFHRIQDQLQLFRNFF
T8 sequence (P08922 1945-2222 limits assumed): as the sequence (P08922 1945-2222 G2032R limits assumed) above, with R88G counted along it
T2 sequence (Q9UM73 with tags, fused parts or gaps): as the sequence (Q9UM73 with tags, fused parts or gaps L1196M/G1202R) above, with M635L, R641G counted along it

Row | SMILES | Ki [1] [nM] | IC50 [2] [nM] | IC50 [3] [nM] | Ki [4] [nM] | Ki [5] [nM] | IC50 [6] [nM] | Ki [7] [nM] | Ki [8] [nM] | IC50 [9] [nM] | TPM3-NTRK1-wt/CD74-ROS1-G2032R selectivity ratio [10] | TPM3-NTRK1-wt/EML4-ALK-L1196M-G1202R selectivity ratio [10]
1 | CCn1ncc2c1-c1cnc(N)c(c1)O[C@H](C)c1cc(F)ccc1-c1nn(C)nc1C2 [Example 5, (19R)-3-ethyl-16-fluoro-10,19-dimethyl-20-oxa-3,4,9,10,11,23-hexaazapentacyclo[19.3.1.0^2,^6.0^8,^12.0^13,^18]pentacosa-1(24),2(6),4.8,11,13,15,17,21(25),22-decaen-22-amine] | < 50 | 0.1 to 50 | 0.1 to 50 | 50 to 500 | < 50 | 50 to 500 |  |  |  |  | 
2 | CCn1ncc2c1-c1cnc(N)c(c1)O[C@H](C)c1cc(F)ccc1-c1c(F)cnn1C2 [Example 8, (19R)-3-ethyl-11,16-difluoro-19-methyl-20-oxa-3,4,8,9,23-pentaazapentacyclo[19.3.1.0^2,^6.0^8,^12.0^13,^18]pentacosa-1(24),2(6),4,9,11,13,15,17,21(25),22-decaen-22-amine] | < 50 |  | 50 to 500 | > 500 | < 50 | > 500 | < 50 | < 50 | 0.1 to 50 | A (bin A for very high selectivity, ratio >30-fold) | C (bin C for moderate selectivity, ratio ≥1)
3 | CCn1ncc2c1-c1cnc(N)c(c1)O[C@H](C)c1cc(F)ccc1-c1cnnn1C2 [Example 2, (19R)-3-ethyl-16-fluoro-19-methyl-20-oxa-3,4,8,9,10,23-hexaazapentacyclo[19.3.1.0^2,^6.0^8,^12.0^13,^18]pentacosa-1(24),2(6),4,9,11,13,15,17,21 (25),22-decaen-22-amine] | < 50 |  | > 500 | > 500 | 50 to 500 | > 500 | 50 to 500 | < 50 | 0.1 to 50 | A (bin A for very high selectivity, ratio >30-fold) | C (bin C for moderate selectivity, ratio ≥1)
